Values quoted from earlier work, collected in patent publication US20030031676A1, “Conjugate compounds for treating atheroma and other diseases” (Pharmacyclics, Inc., priority 1999, published 2003).

Conditions: animal models

## lutetium (III) texaphyrin
  radiation sensitization activity: lack of radiation sensitization activity
